Results from ChEMBL document CHEMBL5303304, “EUbOPEN Chemogenomics Library - IncuCyte” (2023).

Tests used:
Assay type in all cases: toxicity, cell-based
HEK-293T = experiment: Incucyte cell viability with HEK293T; settings: human, 10 µM, compound concentration 10 uM
Fibroblast = experiment: Incucyte cell viability with human fibroblast; settings: 10 µM, compound concentration 10 uM
U2OS = experiment: Incucyte cell viability with U2OS; settings: human, 10 µM, compound concentration 10 uM
Also: unitless GR value; below 1 slowed growth and below 0 cell loss.

Structure (SMILES) | Growth Rate (HEK-293T; 0 h, replicate number 1) | Growth Rate (HEK-293T; 0 h, replicate number 2) | Growth Rate (HEK-293T; 24 h, replicate number 2) | Growth Rate (Fibroblast; 0 h, replicate number 1) | Growth Rate (U2OS; 0 h, replicate number 1) | Growth Rate (U2OS; 24 h, replicate number 2) | Growth Rate (HEK-293T; 24 h, replicate number 1) | Growth Rate (Fibroblast; 0 h, replicate number 2) | Growth Rate (Fibroblast; 6 h, replicate number 2) | Growth Rate (Fibroblast; 12 h, replicate number 2) | Growth Rate (Fibroblast; 18 h, replicate number 1) | Growth Rate (Fibroblast; 18 h, replicate number 2) | Growth Rate (Fibroblast; 24 h, replicate number 2) | Growth Rate (U2OS; 6 h, replicate number 1) | Growth Rate (U2OS; 12 h, replicate number 1) | Growth Rate (U2OS; 12 h, replicate number 2) | Growth Rate (U2OS; 18 h, replicate number 1) | Growth Rate (U2OS; 24 h, replicate number 1) | Growth Rate (U2OS; 6 h, replicate number 2) | Growth Rate (U2OS; 18 h, replicate number 2) | also measured
Cn1ncc(NC(=O)c2nc(-c3c(F)cccc3F)sc2N)c1N1CC[C@@H](N)[C@H](F)CC1 | -1 | -0.31 | 0.77 | -1 | -1 | 0.96 |  |  |  |  |  |  |  |  |  |  |  |  |  |  | 
NC1(c2ccc(-c3nc4c(O)ccnn4c3-c3ccccc3)cc2)CCC1 | -0.07 | -0.33 |  | -1 |  | 0.93 | 0.95 | -0.33 | 0.35 | 0.9 | 0.95 | 0.83 | 0.93 | 0.34 | 0.63 | 0.83 | 0.66 | 0.89 |  |  | Growth Rate (U2OS; 0 h, replicate number 2): -0.99
CN(C(=O)c1cnn2cccnc12)c1cc2c(cc1N1CCOCC1)C(=O)N(C[C@@H](F)C(C)(C)O)C2 | 0.82 | 0.66 | 0.92 |  | 0.99 | 0.85 |  | 0.71 | 0.95 | 0.89 | 0.7 |  |  | 0.54 | 0.98 | -0.78 | 0.75 |  | 0.75 | 0.92 | Growth Rate (HEK-293T; 6 h, replicate number 2): 0.77; Growth Rate (HEK-293T; 12 h, replicate number 2): 0.85; Growth Rate (HEK-293T; 18 h, replicate number 2): 1; Growth Rate (Fibroblast; 6 h, replicate number 1): 0.38; Growth Rate (Fibroblast; 12 h, replicate number 1): 0.84; Growth Rate (Fibroblast; 24 h, replicate number 1): 0.82
COc1ccccc1Nc1nc(-c2nn(Cc3c(F)cc(OCCCO)cc3F)c3ccccc23)ncc1OC | 0.17 |  |  |  |  | 0.96 |  | -0.85 | 0.53 | 0.41 | 0.85 | 0.58 | 0.85 |  |  | 0.93 |  |  | 0.89 | 1 | Growth Rate (Fibroblast; 6 h, replicate number 1): 0.3; Growth Rate (Fibroblast; 12 h, replicate number 1): 0.59; Growth Rate (Fibroblast; 24 h, replicate number 1): 0.77
COc1cnccc1Nc1nc(-c2nn(Cc3c(F)cc(OCCO)cc3F)c3ccccc23)ncc1OC | -1 | -0.96 | 0.21 |  | -1 | 0.09 |  |  | 0.31 | 0.04 | -0.14 | -0.07 | -0.03 | -0.05 | -0.2 | 0.06 | -0.22 | -0.17 | -0.04 | 0.21 | Growth Rate (HEK-293T; 6 h, replicate number 2): -0.05; Growth Rate (HEK-293T; 12 h, replicate number 2): -0.01; Growth Rate (HEK-293T; 18 h, replicate number 2): 0.13; Growth Rate (Fibroblast; 6 h, replicate number 1): -0.29; Growth Rate (Fibroblast; 12 h, replicate number 1): -0.23; Growth Rate (Fibroblast; 24 h, replicate number 1): -0.14; Growth Rate (U2OS; 0 h, replicate number 2): -0.09
CN(C)CC#Cc1ccc2[nH]c3c(c2c1)-c1nc(N)ncc1CCC3 | -0.2 | 0.54 | -0.05 | -1 | -0.89 | 0.36 | 0.12 |  |  | 0.69 | 0.27 | 0.42 | 0.33 |  | 0.96 | 0.59 | 0.86 | 0.86 | 0.82 | 0.45 | Growth Rate (HEK-293T; 6 h, replicate number 1): -0.19; Growth Rate (HEK-293T; 6 h, replicate number 2): -0.58; Growth Rate (HEK-293T; 12 h, replicate number 1): -0.03; Growth Rate (HEK-293T; 12 h, replicate number 2): -0.38; Growth Rate (HEK-293T; 18 h, replicate number 1): 0.11; Growth Rate (HEK-293T; 18 h, replicate number 2): -0.23; Growth Rate (Fibroblast; 6 h, replicate number 1): 0.76; Growth Rate (Fibroblast; 12 h, replicate number 1): 0.45; Growth Rate (Fibroblast; 24 h, replicate number 1): 0.2
CCOc1ccc(S(=O)(=O)Nc2ccc(Cl)cc2C#Cc2cnc(C(=O)[O-])cc2OC)c2ncccc12.[K+] | 0.28 | -0.2 | 0.87 | -0.78 | -0.87 | 0.81 | 0.98 |  | 0.49 | 0.49 | 1 | 0.43 | 0.53 |  | 0.95 | -0.91 | 0.94 |  | 0.58 | -0.85 | Growth Rate (HEK-293T; 6 h, replicate number 2): 0.66; Growth Rate (HEK-293T; 12 h, replicate number 2): 0.97; Growth Rate (HEK-293T; 18 h, replicate number 2): 0.87; Growth Rate (Fibroblast; 24 h, replicate number 1): 0.99; Growth Rate (U2OS; 0 h, replicate number 2): 0.5
CCCS(=O)(=O)Nc1ccc(F)c(Nc2ncnc3cnc(-n4cnc(C)c4)nc23)c1F | -0.79 |  | 0.8 | -0.99 |  | 0.67 | 0.71 |  | 0.4 | 0.62 | 0.53 | 0.69 | 0.77 | 0.75 | 0.7 | 0.63 | 0.78 | 0.97 | 0.61 | 0.84 | Growth Rate (HEK-293T; 6 h, replicate number 2): 0.5; Growth Rate (HEK-293T; 12 h, replicate number 1): 0.77; Growth Rate (HEK-293T; 12 h, replicate number 2): 0.72; Growth Rate (HEK-293T; 18 h, replicate number 1): 0.75; Growth Rate (HEK-293T; 18 h, replicate number 2): 0.73; Growth Rate (Fibroblast; 6 h, replicate number 1): 0.75; Growth Rate (Fibroblast; 12 h, replicate number 1): 0.52; Growth Rate (Fibroblast; 24 h, replicate number 1): 0.53
CN1CC(=O)N(C)c2cnc(Nc3ccc(NC(=O)Nc4cccc(C(=O)O)c4)cc3)nc21 | -1 |  |  | -1 | -0.94 | 1 | 0.72 | -0.25 |  | 0.81 |  | 0.99 |  | 0.82 | 0.91 | 0.75 | 0.89 | 0.95 | 0.73 | 0.97 | Growth Rate (HEK-293T; 18 h, replicate number 1): 0.83; Growth Rate (U2OS; 0 h, replicate number 2): 0.52
C[S+]([O-])c1ccc(-c2nc(-c3cccc(I)c3)c(-c3ccncc3)[nH]2)cc1 (stereo not given) | -0.57 | -1 |  |  | -0.99 | 0.65 | 0.99 |  | 0.66 |  |  |  |  |  |  | 0.8 | 0.97 | 1 | 0.79 | 0.75 | Growth Rate (HEK-293T; 12 h, replicate number 1): 0.87; Growth Rate (HEK-293T; 18 h, replicate number 1): 0.99
CN(C)c1ccc(-c2cc3ncccc3c(OCCCCO)n2)cc1.O=C(O)C(F)(F)F | -0.94 | -0.26 | 0.87 |  | -1 | 0.64 |  | -0.45 | 0.29 | 0.37 |  | 0.6 | 0.65 |  | 0.85 | 0.55 | 0.66 | 0.91 | -0.83 | 0.67 | 
COc1cc(C(N)=O)ccc1Nc1ncc2c(n1)N(CCC(C)C)[C@H](C)C(=O)N2C | -0.98 | -1 |  | -0.99 | -1 | 0.27 | 0.53 | -0.68 |  |  |  |  | 0.77 |  | -0.71 | 0.18 | 0.37 | -0.55 | 0.39 | 0.4 | 
O=C1NC(=NCc2cccs2)SC1=Cc1ccc2ncccc2c1 | -1 | -0.11 | 0.54 | -1 | -1 | 0.39 | 0.75 | -0.82 |  |  |  |  |  | 0.68 | 0.27 | 0.54 | 0 | 0.51 | 0.87 | 0.45 | Growth Rate (HEK-293T; 12 h, replicate number 2): 0.83; Growth Rate (HEK-293T; 18 h, replicate number 1): 0.84; Growth Rate (HEK-293T; 18 h, replicate number 2): 0.53
O=C1CCCN1CCNc1nc(Nc2ccc(Cl)c(Cl)c2)ncc1C(F)(F)F | -0.87 | -1 |  |  | -1 |  | 0.78 |  | 0.95 | 0.41 | 0.65 | 0.48 | 0.45 | 0.32 | 0.24 | -0.25 | 0.25 | 0.37 |  |  | Growth Rate (HEK-293T; 18 h, replicate number 1): 0.89; Growth Rate (Fibroblast; 12 h, replicate number 1): 0.62; Growth Rate (Fibroblast; 24 h, replicate number 1): 0.64
